How the values were obtained:
[1] = system: pancreatic carcinoma cells; conditions: Mol Cancer Ther May 2009 8:1095-1105; cited from earlier work
human GH = human GH (Homo sapiens, UniProt P01241); test: Slot blot of anti-huGH activity in serum from mice immunized with huGH; assay type: in vivo, mouse; conditions: slot blot on immobilized human GH
[2] = Body weight of mice immunized with huGH; assay type: in vivo, mouse; conditions: 20 male and 20 female mice immunized with huGH
Source text: FIG. 13A provides a plot of body weight of mice immunized with human Growth Hormone (huGH) (20 male and 20 female) versus time.
This figure provides a plot of body weight of mice immunized with human Growth Hormone (huGH) (20 male and 20 female) versus time.

[3] = system: chemotherapy side effects; test: Short term immunization with human GH before cyclophosphamide treatment (body weight, complete blood count); assay type: in vivo, mouse; conditions: cyclophosphamide i.p., 300 mg/kg, body weight and CBC 7-days after CP
Description: FIG. 14A provides plots of the body weight of mice with short term immunization (STI) with human GH (half-filled arrowheads) after cyclophosphamide treatment (cyclophosphamide (CP) i.p., 300 mg/kg, indicated by the solid arrowhead)(Sham means treated with buffer and no chemo);
FIG. 14B provides a histogram of the complete blood count (CBC) 7-days after CP treatment (Data are presented as percentage of pre-chemo value);
FIG. 14A provides plots of the body weight of mice with short term immunization (STI) with human GH (half-filled arrowheads) after cyclophosphamide treatment (cyclophosphamide (CP) i.p., 300 mg/kg, indicated by solid arrowheads). FIG. 14B provides a histogram of the complete blood count (CBC) 7-days after CP treatment (Data are presented as percentage of pre-chemo value).

primary glial cells = test: 24 hour LDH release from primary glial cells treated with IGFBP1; assay type: cell-based
Description: FIG. 17 provides a plot of the 24 hour lactate dehydrogenase (LDH) release from the treatment of primary glial cells with the IGF-I inhibitor insulin-like growth factor-binding protein 1 (IGFBP1) and with insulin-like growth factor-binding protein 2 (IGFBP2). […] IGFBP1 is a strong IGF-I inhibitor. Other IGFBPs can even increase IGF-I signaling.

human GH, sequence (P01241 27-217): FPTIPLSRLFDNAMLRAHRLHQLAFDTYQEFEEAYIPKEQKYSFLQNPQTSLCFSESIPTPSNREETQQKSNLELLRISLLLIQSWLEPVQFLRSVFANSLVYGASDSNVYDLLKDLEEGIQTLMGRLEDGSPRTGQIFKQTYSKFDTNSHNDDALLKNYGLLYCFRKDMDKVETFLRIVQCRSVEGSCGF

## AMG 479: a fully human anti-insulin-like growth factor receptor type I monoclonal antibody
[1]
  effect on growth and survival of pancreatic carcinoma cells: inhibits the growth and survival of pancreatic carcinoma cells

## human Growth Hormone [huGH]
Human GH
  immunized mice showing strong anti-huGH activity in serum: 34 out of 40
[2]
  body weight of immunized mice: Lower body weight
[3]
  effect against chemotherapy side effects: protective effect against chemotherapy side effects

B1: insulin-like growth factor-binding protein 1 (protein, UniProt P08833 26-259, looked up)
Insulin-like growth …: APWQCAPCSAEKLALCPPVSASCSEVTRSAGCGCCPMCALPLGAACGVATARCARGLSCRALPGEQQPLHALTRGQGACVQESDASAPHAAEAGSPESPESTEITEEELLDNFHLMAPSEEDHSILWDAISTYDGSKALHVTNIKKWKEPCRIELYRVVESLAKAQETSGEEISKFYLPNCNKNGFYHSRQCETSMDGEAGLCWCVYPWNGKRIPGSPEIRGDPNCQIYFNVQN
Primary glial cells
  protection against oxidative damage (LDH release): protects them against oxidative damage

Reference: patent US20210246202A1, “TREATMENTS RELATED TO GH/IGF-1 AXIS INHIBITION” (UNIVERSITY OF SOUTHERN CALIFORNIA, priority 2010, published 2021)
